“And” between values parts separate entries of the source, which are not always exact repeats. Equal entries are not always repeated. Where two headings read alike, the source gives them in different places.
Experiments:
SARS-CoV-2 [1] = assay: microbe, parasite or virus in culture; type: cell-based
Vero cell lines = assay: Cell viability of Vero cells in the SARS-CoV-2 inhibition experiment (Example 2)
SARS-CoV-2 [2] = assay: microbe, parasite or virus in culture; type: cell-based; conditions: read-out: SARS-CoV-2 virus 50% inhibitory ability (IC50 value); VERO cells infected at MOI 0.1 for one hour, then drug; culture fluid after 48 hours, qRT-PCR
VERO cells = assay: Cell viability of VERO cells by WST-1 assay (Example 3); conditions: read-out: 50% cell viability inhibitory concentration (CC50 value); VERO cells, WST-1 assay
[3] = read-out: SARS-CoV-2 virus 50% inhibitory ability (IC50 value)

COc1cc2cc3c(c(-c4ccc5c(c4)OCO5)c2cc1OC)C(=O)OC3 [Justicidin-B, 9-benzo[1,3]dioxol-5-yl-6,7-dimethoxy-3H-naphtho[2,3-c]furanone]
SARS-CoV-2 inhibitory ability (in words) (SARS-CoV-2 [1]; Vero cells, comparison at IC50 values with Remdesivir, Lopinavir and Chloroquine): remarkably more excellent | SARS-CoV-2 virus inhibitory ability (%, average ± standard deviation) (SARS-CoV-2 [1]; concentration 0.10 uM, Vero cells, 24 h): 13.37 ± 6.72% | SARS-CoV-2 virus inhibitory ability (%, average ± standard deviation) (SARS-CoV-2 [1]; concentration 0.20 uM, Vero cells, 24 h): 48.73 ± 2.82% | SARS-CoV-2 virus inhibitory ability (%, average ± standard deviation) (SARS-CoV-2 [1]; concentration 0.39 uM, Vero cells, 24 h): 88.06 ± 0.59% | SARS-CoV-2 virus inhibitory ability (%, average ± standard deviation) (SARS-CoV-2 [1]; concentration 1.56 uM, Vero cells, 24 h): 99.61 ± 0.65% | SARS-CoV-2 virus inhibitory ability (%, average ± standard deviation) (SARS-CoV-2 [1]; concentration 3.13 uM, Vero cells, 24 h): 100.03 ± 0.27% | SARS-CoV-2 virus inhibitory ability (%, average ± standard deviation) (SARS-CoV-2 [1]; concentration 12.5 uM, Vero cells, 24 h): 100.01 ± 0.14% | SARS-CoV-2 virus inhibitory ability (%, average ± standard deviation) (SARS-CoV-2 [1]; concentration 25 uM, Vero cells, 24 h): 100.00 ± 0.21% | SARS-CoV-2 virus inhibitory ability (%, average ± standard deviation) (SARS-CoV-2 [1]; concentration 50 uM, Vero cells, 24 h): 100.28 ± 0.49% | IC50 (SARS-CoV-2 [1]; [3]): 0.203 µM | Cell viability (%, average ± standard deviation) (Vero cell lines; concentration 0.10 uM): 107.08 ± 1.75% | Cell viability (%, average ± standard deviation) (Vero cell lines; concentration 0.20 uM): 110.62 ± 0.00% | Cell viability (%, average ± standard deviation) (Vero cell lines; concentration 0.39 uM): 107.70 ± 4.88% | Cell viability (%, average ± standard deviation) (Vero cell lines; concentration 1.56 uM): 102.83 ± 5.24% | Cell viability (%, average ± standard deviation) (Vero cell lines; concentration 3.13 uM): 98.69 ± 5.68% | Cell viability (%, average ± standard deviation) (Vero cell lines; concentration 6.25 uM): 94.60 ± 3.46% | Cell viability (%, average ± standard deviation) (Vero cell lines; concentration 12.5 uM): 90.01 ± 1.60% | Cell viability (%, average ± standard deviation) (Vero cell lines; concentration 25 uM): 83.49 ± 1.22% | Cell viability (%, average ± standard deviation) (Vero cell lines; concentration 50 uM): 78.67 ± 2.53% | IC50 (SARS-CoV-2 [2]): 0.17 µM | CC50 (VERO cells): > 800 µM

Cc1cccc(C)c1OCC(=O)N[C@@H](Cc1ccccc1)[C@@H](O)C[C@H](Cc1ccccc1)NC(=O)[C@H](C(C)C)N1CCCNC1=O [Lopinavir]
inhibition at 25 µM (SARS-CoV-2 [1]; Severe acute respiratory syndrome coronavirus 2, Vero, 24 h, concentration 25 uM, Vero cells, 24 h, read-out: SARS-CoV-2 virus inhibitory ability (%, average ± standard deviation)): 99.01 ± 0.02% | inhibition at 50 µM (SARS-CoV-2 [1]; Severe acute respiratory syndrome coronavirus 2, Vero, 24 h, concentration 50 uM, Vero cells, 24 h, read-out: SARS-CoV-2 virus inhibitory ability (%, average ± standard deviation)): 98.2 ± 2.11% | IC50 (SARS-CoV-2 [1]; Severe acute respiratory syndrome coronavirus 2, Vero, 24 h, read-out: SARS-CoV-2 virus 50% inhibitory ability (IC50 value), Vero cells dosed while being infected, 24 h, compounds): 12.6 µM | SARS-CoV-2 virus inhibitory ability (%, average ± standard deviation) (SARS-CoV-2 [1]; concentration 0.10 uM, Vero cells, 24 h, 0.1 µM): 3.14 ± 0.24% and −0.2 ± 4.23% | SARS-CoV-2 virus inhibitory ability (%, average ± standard deviation) (SARS-CoV-2 [1]; concentration 0.20 uM, Vero cells, 24 h, 0.2 µM): 0.2 ± 2.44% | SARS-CoV-2 virus inhibitory ability (%, average ± standard deviation) (SARS-CoV-2 [1]; concentration 0.39 uM, Vero cells, 24 h, 0.39 µM): −0.60 ± 2.75% and 1.2 ± 5.71% | SARS-CoV-2 virus inhibitory ability (%, average ± standard deviation) (SARS-CoV-2 [1]; concentration 1.56 uM, Vero cells, 24 h, 1.56 µM): 0.79 ± 3.76% and 1.7 ± 0.27% | SARS-CoV-2 virus inhibitory ability (%, average ± standard deviation) (SARS-CoV-2 [1]; concentration 3.13 uM, Vero cells, 24 h, 3.13 µM): 3.03 ± 0.67% and 0.2 ± 6.78% | SARS-CoV-2 virus inhibitory ability (%, average ± standard deviation) (SARS-CoV-2 [1]; concentration 6.25 uM, Vero cells, 24 h, 6.25 µM): 3.38 ± 5.94% and −0.1 ± 1.27% | SARS-CoV-2 virus inhibitory ability (%, average ± standard deviation) (SARS-CoV-2 [1]; concentration 25 uM, Vero cells, 24 h, 25 µM): 98.6 ± 0.28% | SARS-CoV-2 virus inhibitory ability (%, average ± standard deviation) (SARS-CoV-2 [1]; concentration 50 uM, Vero cells, 24 h, 50 µM): 99.6 ± 0.57% | IC50 (SARS-CoV-2 [1]; read-out: SARS-CoV-2 virus 50% inhibitory ability (IC50 value), Vero cells dosed while being infected, 24 h, compounds): 14.5 µM

CCC(CC)COC(=O)[C@H](C)N[P@](=O)(OC[C@H]1O[C@@](C#N)(c2ccc3c(N)ncnn23)[C@H](O)[C@@H]1O)Oc1ccccc1 [Remdesivir]
inhibition at 6.25 µM (SARS-CoV-2 [1]; Severe acute respiratory syndrome coronavirus 2, Vero, 24 h, concentration 6.25 uM, read-out: SARS-CoV-2 virus inhibitory ability (%, average ± standard deviation)): 10.8 ± 43.8% | inhibition at 12.5 µM (SARS-CoV-2 [1]; Severe acute respiratory syndrome coronavirus 2, Vero, 24 h, concentration 12.5 uM, read-out: SARS-CoV-2 virus inhibitory ability (%, average ± standard deviation)): 63.6 ± 1.23% | inhibition at 25 µM (SARS-CoV-2 [1]; Severe acute respiratory syndrome coronavirus 2, Vero, 24 h, concentration 25 uM, read-out: SARS-CoV-2 virus inhibitory ability (%, average ± standard deviation)): 84.6 ± 2.21% | inhibition at 50 µM (SARS-CoV-2 [1]; Severe acute respiratory syndrome coronavirus 2, Vero, 24 h, concentration 50 uM, read-out: SARS-CoV-2 virus inhibitory ability (%, average ± standard deviation)): 94.38 ± 0.41% | IC50 (SARS-CoV-2 [1]; Severe acute respiratory syndrome coronavirus 2, Vero, 24 h, read-out: SARS-CoV-2 virus 50% inhibitory ability (IC50 value)): 10.8 µM | SARS-CoV-2 virus inhibitory ability (%, average ± standard deviation) (SARS-CoV-2 [1]; concentration 0.10 uM, 0.1 µM): −2.24 ± 7.45% | SARS-CoV-2 virus inhibitory ability (%, average ± standard deviation) (SARS-CoV-2 [1]; concentration 0.20 uM, 0.2 µM): 2.60 ± 1.90% and 7.2 ± 0.17% | SARS-CoV-2 virus inhibitory ability (%, average ± standard deviation) (SARS-CoV-2 [1]; concentration 0.39 uM, 0.39 µM): −1.29 ± 2.86% and 4.8 ± 4.21% | SARS-CoV-2 virus inhibitory ability (%, average ± standard deviation) (SARS-CoV-2 [1]; concentration 1.56 uM, 1.56 µM): 0.65 ± 5.05% and 7.4 ± 1.96% | SARS-CoV-2 virus inhibitory ability (%, average ± standard deviation) (SARS-CoV-2 [1]; concentration 3.13 uM, 3.13 µM): 5.89 ± 3.28% and 11.8 ± 0.80% | SARS-CoV-2 virus inhibitory ability (%, average ± standard deviation) (SARS-CoV-2 [1]; concentration 6.25 uM, 6.25 µM): 16.2 ± 2.56% | SARS-CoV-2 virus inhibitory ability (%, average ± standard deviation) (SARS-CoV-2 [1]; concentration 12.5 uM, 12.5 µM): 47.9 ± 0.01% | SARS-CoV-2 virus inhibitory ability (%, average ± standard deviation) (SARS-CoV-2 [1]; concentration 25 uM, 25 µM): 82.1 ± 1.40% | SARS-CoV-2 virus inhibitory ability (%, average ± standard deviation) (SARS-CoV-2 [1]; concentration 50 uM, 50 µM): 93.5 ± 1.80% | IC50 (SARS-CoV-2 [1]; [3]): 12.7 µM
